Paper PMC11157481, “Mechanochemical Synthesis of New Praziquantel Cocrystals: Solid-State Characterization and Solubility” (Crystal Growth & Design, 2024)
Where two headings read alike, the source gives them in different places.

Test: Equilibrium solubility by the shake-flask method with HPLC-UV analysis
Type: physicochemical
Conditions: for Increase in solubility in SIF compared to PZQ alone: 24 h, relative to pure PZQ; for [PZQ] in SCF attained in 24 hours / [PZQ] in SGF attained in 24 hours / [PZQ] in SIF attained in 24 hours / [PZQ] in H2O attained in 24 hours / solubility thermodynamic at 24 h: shake-flask; for [PZQ] in SCF attained in 24 hours / [PZQ] in SGF attained in 24 hours / [PZQ] in SIF attained in 24 hours / [PZQ] in H2O attained in 24 hours: n = 3; for solubility thermodynamic at 24 h: thermodynamic from solid
Protocol: The stock solution of PZQ (2 mg/mL) was prepared by dissolving the pure compound in MeCN. Corresponding aliquots were diluted with the same solvent for the preparation of working PZQ solutions. Samples of 10 μL were injected into the chromatographic system. […] Ultrapure water was used as the reference dissolution medium. The solubility of the obtained PZQ cocrystals was determined by the shake-flask method. Briefly, excess PZQ and PZQ cocrystals (the corresponding amount of 6 mg of PZQ) were added to 2 mL vials containing 2 mL of the dissolution medium. The slurry samples were placed in an orbital shaker to achieve uniform mixing at 37 °C for 24 h. At different time intervals (10, 20, 30, 40, 50, 60, and 90 min), an aliquot of 200 μL of each sample was collected after centrifugation, filtered, and analyzed concerning the PZQ content by HPLC-UV analysis.
The solubilities of each cocrystal and PZQ were tested in ultrapure water and the three dissolution media, simulating the biorelevant fluids present along the entire gastrointestinal tract, namely, SGF (simulated gastric fluid), SIF (simulated intestinal fluid), and SCF (simulated colonic fluid).

[1] = simulated colonic fluid pH 7.8, 37 °C
[2] = simulated gastric fluid pH 1.5, 37 °C
[3] = simulated intestinal fluid pH 7.4, 37 °C

| Molecule | Increase in solubility in SIF compared to PZQ alone [fold] | [PZQ] in SCF attained in 24 hours [1] [µg/mL] | [PZQ] in SGF attained in 24 hours [2] [µg/mL] | [PZQ] in SIF attained in 24 hours [3] [µg/mL] | [PZQ] in H2O attained in 24 hours (ultrapure water, 37 °C) [µg/mL] | solubility thermodynamic at 24 h (simulated colonic fluid (SCF), fassgf or other biorelevant, simulated colonic fluid pH 7.8, 37 °C, n = 3, read-out: [PZQ] in SCF attained in 24 hours) [µg/mL] | solubility thermodynamic at 24 h (simulated gastric fluid (SGF), simulated gastric fluid pH 1.5, 37 °C, n = 3, read-out: [PZQ] in SGF attained in 24 hours) [µg/mL] | solubility thermodynamic at 24 h (simulated intestinal fluid (SIF), fassgf or other biorelevant, simulated intestinal fluid pH 7.4, 37 °C, n = 3, read-out: [PZQ] in SIF attained in 24 hours) [µg/mL] | solubility thermodynamic at 24 h (ultrapure water, 37 °C, n = 3, read-out: [PZQ] in H2O attained in 24 hours) [µg/mL] |
| --- | --- | --- | --- | --- | --- | --- | --- | --- | --- |
| O=C(C1CCCCC1)N1CC(=O)N2CCc3ccccc3C2C1.O=C(O)c1cccc(O)c1 (stereo not drawn) [Co-Crystal 7, PZQ – 3-HYDROXYBENZOIC ACID (3HBA) (1:1)] | 1.2 | 251.67 | 214.21 | 232.31 | 252.60 |  |  |  |  |
| PZQ – 5-HYDROXYISOPHTHALIC ACID (5HIP) – MeCN [Co-Crystal 1] | 1.87 | 122.86 | 85.70 | 361.00 | 95.51 |  |  |  |  |
| O=C(C1CCCCC1)N1CC(=O)N2CCc3ccccc3C2C1.O=C(C1CCCCC1)N1CC(=O)N2CCc3ccccc3C2C1.O=C(O)c1cccc(O)c1 (stereo not drawn) [Co-Crystal 9, PZQ – 3-HYDROXYBENZOIC ACID (3HBA) (2:1)] |  | 257.95 | 231.45 | 226.47 | 248.12 |  |  |  |  |
| O=C(C1CCCCC1)N1CC(=O)N2CCc3ccccc3C2C1.O=C(O)C(=O)O (stereo not drawn) [Co-Crystal 8, PZQ – OXALIC ACID (OXA)] |  | 252.98 | 238.78 | 229.26 | 250.12 |  |  |  |  |
| PZQ – TRIMESIC ACID (TRI) – H2O [Co-Crystal 4] | 1.26 | 193.95 | 44.98 | 242.32 | 56.09 |  |  |  |  |
| PZQ – 4-AMINOSALICYLIC ACID (4ASA) – MeCN [Co-Crystal 3] |  | 294.31 | 323.31 | 264.29 | 278.89 |  |  |  |  |
| O.O=C(C1CCCCC1)N1CC(=O)N2CCc3ccccc3C2C1.O=C(O)c1ccccc1O (stereo not drawn) [Co-Crystal 6, PZQ – SALICYLIC ACID (SAL) – H2O] |  | 258.43 | 202.80 | 246.81 | 220.38 |  |  |  |  |
| O=C(C1CCCCC1)N1CC(=O)N2CCc3ccccc3C2C1.O=C(O)c1ccc(O)cc1 (stereo not drawn) [Co-Crystal 5, PZQ – 4-HYDROXYBENZOIC ACID (4HBA)] |  | 247.22 | 203.21 | 217.86 | 225.06 |  |  |  |  |
| O=C(C1CCCCC1)N1CC(=O)N2CCc3ccccc3C2C1 (stereo not drawn) [Co-Crystal 12, praziquantel] |  |  |  |  |  | 220 | 200 | 193 | 211 |
